Here are results for three compounds from patent US20080275136A1, “Use of Glycerol for Improving Cardiac Function” (priority 2005, published 2008).

Structures are written as SMILES. Where two headings read alike, the source gives them in different places.

One series concerns heart. The following applies: cited from earlier work.
For another series, the system named is type 2 diabetic patients. The note with it: cited from earlier work.
For series [1], the system named is isolated neonatal rat cardiomyocytes. The note with it: cited from earlier work.
Series [2] concerns perfused rat heart. Briefly: Simultaneous oxidation of [3H]-palmitate and [14C]-glycerol in perfused rat heart. The following applies: extracellular glycerol concentration increased; palmitate 0.4 mM. The method, then:
The influence of cardiac energy demand and circulating glycerol concentration on fatty acid metabolism was evaluated in the heart by following the intracellular palmitate fate with [^3H]-palmitate. The experiments were performed using the perfusion conditions described in Example 1, except that a perfusion solution supplemented with palmitate (0.4 mM) was used. To prepare palmitate-enriched solution, 43.5 g of albumin (fraction bovine, Sigma) was dissolved in 350 mL Krebs-Henselheit buffer. Palmitate was then slowly added to this albumin solution and mixed. The albumin-palmitate mixture was dialysed against Krebs-Henselheit solution at +4° C. (three time 12 h dialysis in 10 basal solution volume). For the final preparation of the palmitate-enriched fluid, 93.5 mL of concentrated solution were incorporated in 2 L of Krebs-Henselheit Radioactive solution was prepared in the same conditions with addition of [^3H]-palmitate (1 μCi/mL). The perfusion solution also contained [^14C]-glycerol to follow glycerol oxidation in the same heart. The oxidations of palmitate and glycerol were evaluated simultaneously using as tracers [^3H]-palmitate and [^14C]-GLYCEROL, respectively. At the end of the perfusion, the oxidized substrates were determined by measuring the radioactivity rejected by the heart in the perfusion medium as [^3H]2O and [^14C]O2, respectively.

In series [3] the test system is perfused rat heart. Briefly: Incorporation of glycerol in glycerolipids (PL and NPL) in perfused rat heart. The note with it: increase in rate. The procedure:
The experiments were performed using the perfusion conditions described in Example 1. At the end of the perfusion, the heart was washed out from the remaining radiolabelled medium by 10 mL of Krebs-Henseleit solution injected through the canula. The hearts were homogenized in 30 mL chloroform/methanol (2/1, v/v) according to FOLCH (1957, aforementioned). The radioactivity of the homogenate was evaluated. A 0.73% NaCl solution was added to the homogenate to cause phase separation. The radioactivity was determined in samples of the aqueous and organic fractions, and the phospholipids (PL) were separated from non-phosphorous lipids (NPL) on silica cartridges (Supelco, Sigma) and the radioactivity of each class was evaluated. The fate of intracellular glycerol was evaluated in these rat hearts by analysing the radioactivity incorporated into phospholipids (PL) and non-phosphorous lipids (NPL), which in the heart represent mainly the triacylglycerol pool.

The subject of series [4] is perfused rat heart. Briefly: 14CO2 production from [14C]-glycerol in perfused rat heart (mitochondrial energy production). The note with it: energy demand raised from 350 to 450 beats/min; whatever the circulating glycerol concentration (0.33 or 3.33 mM). The method, then: (§1) The investigations were carried out on a perfused rat heart model (LOPASCHUK and BARR., 1997, aforementioned, SENTEX et al, 2001, aforementioned, FOLCH et al., J Biol Chem, 226, 497-509, 1957). Male Wistar rats (280-330 g) were anaesthetised with sodium pentobarbital (60 mg per kg, i.p.) and heparin was intravenously injected (500 IU/kg). After 1 min, the hearts were excised and placed in a cold (4° C.) perfusion buffer awaiting contractions ceased. The heart was then immediately cannulated through the aorta and perfused according to the Langendorff method at a constant perfusion pressure of 80 cm of water (8 kPa). […]
(§2) Before use, all solutions were filtered through a 0.8 μm filter (Millipore, Saint Quentin en Yvelines, France) to remove any particulate contaminants. […] The intra-ventricular pressure and the heart rate were recorded together with ECG. Coronary flow was measured by sequentially collecting the effluent. […]
The cardiac capacity to use glycerol as a metabolic substrate in energy production, according to glycerol availability was evaluated using ^14C-radiolabelled glycerol.
The direct measurement of mitochondrial energy production was made by quantitatively collecting ^14CO2 produced from the perfused hearts. […] The hyamine […] was collected every 10 minutes and the radioactivity evaluated.

Series [5] deals with perfused rat heart. Briefly: Glycerol uptake in perfused rat heart (total radioactivity of the homogenate). The method, then: as §1, with “kPa). The perfusion fluid consisted of a modified Krebs-Henseleit bicarbonate buffer (mM concentrations: NaCl 118, NaHCO3 25, MgSO4 1.2, KH2PO4 1.2, KCl 4.7, glucose 5.5 and CaCl2 2.0).” for “kPa).”
as §2
At the end of the perfusion, the heart was washed out from the remaining radiolabelled medium by 10 mL of Krebs-Henseleit solution injected through the canula. […] The radioactivity of the homogenate was evaluated.
The glycerol uptake was evaluated from the total radioactivity of the homogenate.

Where [6] appears, read: as a function of the extracellular glycerol concentration.

As for `CCOC(=O)[C@@]1(CCCCCCOc2ccc(Cl)cc2)CO1` [Etomoxir], in the series with heart (chronic treatment), the cardiac hypertrophy result is recorded as “induced cardiac hypertrophy”. In addition, the glucose oxidation result with heart (normal and diabetic heart) is “increase glucose oxidation”. Also, the insulin sensitivity result in the series on type 2 diabetic patients is listed as “improve insulin sensitivity”.
Consider `COc1ccc(CN2CCNCC2)c(OC)c1OC` [Trimetazidine, reference compound], for which, in series [1] (Trimetazidine added), the glycerol uptake entry is “increased”, the phospholipid synthesis entry is “increased their synthesis only at high glycerol concentrations” and the triacylglycerol synthesis entry is recorded as “no significant effect”. Further, the cellular glycerol uptake result in the series with heart (associated with increased phospholipid synthesis) was “significant increase”. The β-oxidation result with heart is “reduces β-oxidation”. Further, the phospholipid synthesis result in the series with heart (in vitro and in vivo) is “increasing the phospholipid synthesis”.
As to `OCC(O)CO` [glycerol], the PL concentration entry in series [1] (setting [6]) was “increased progressively”. The triacylglycerol concentration entry in series [1] (setting [6]) is “only increased at higher glycerol concentrations”. Besides, the glycerol uptake entry in series [1] (extracellular glycerol concentration from 80 μM to 660 μM) is given as “increases”; in the series with perfused rat heart [5] (high glycerol concentration (3.33 mM), increased energetic demand 350 to 450 beats/min), “significant increase”; with perfused rat heart [5] (low glycerol concentration (0.33 mM), increase in rate 350 to 450 beats/min), “not significantly modified”. In the series on perfused rat heart [2], the “FA β-oxidation ([3H]2O from palmitate)” value was “reduced”. The “glycerol oxidation ([14C]O2)” value with perfused rat heart [2] is given as “increased”. Besides, the synthesis of glycerolipids entry was “involved in the synthesis of both membrane phospholipids and storage triacylglycerols” with perfused rat heart [3] (high glycerol concentration (3.33 mM)); “does not influence” with perfused rat heart [3] (low glycerol concentration (0.33 mM)). The “mitochondrial production of 14CO2 from glycerol” value with perfused rat heart [4] is on record as “significantly increased”.
